What all share (assay type): in vivo
Series [1] in a line: Body weight development of piglets on a farm with a known history of coccidiosis (Example A). As for the experimental part:
(§1) This target animal safety and efficacy study was conducted on a farm with a known history of cocciodiosis. The main objective was to study the safety and efficacy of intramuscular injection of toltrazuril in comparison to the standard oral application. • Group 1: 8 piglets 3 days old were injected by a single intramuscular dose of toltrazuril (dose=20 mg toltrazuril per kg body weight equivalent to 0.4 mL/kg body weight) on SD0. • Group 2: 8 piglets 3 days old were injected by one intramuscular dose of toltrazuril (60 mg toltrazuril per kg body weight equivalent to 1.2 mL/Kg body weight) on SD0. • Group 3: 8 piglets 3 days old were dosed orally with the standard commercial formulation of toltrazuril, Cevazuril® (dose=20 mg toltrazuril per kg body weight equivalent to 0.4 mL/Kg body weight) on SD0. • Group 4: 12 piglets 3 days old, left untreated.
(§2) All four (4) groups of piglets were injected on SD0 with iron (Gleptosil®) at the dose rate of 1 ml per piglet.
(§3) The local and general tolerances, as well as body weight development, were assessed.

Series [2] is described as follows: Pharmacokinetics: serum concentrations of toltrazuril and toltrazuril sulfone in 2-day-old piglets (Example B). The settings on record: after intramuscular application. As for the experimental part: (§4) • Group 1: 10 piglets 2 days old were injected with one intramuscular dose of toltrazuril C629 (dose=20 mg toltrazuril per kg body weight equivalent to 0.4 mL/Kg body weight) on SD0. • Group 2: 11 piglets 2 days old were injected with one intramuscular dose of toltrazuril C629 (dose=40 mg toltrazuril per kg body weight equivalent to 0.8 mL/kg body weight) on SD0. • Group 3: 9 piglets 2 days old were dosed orally with the standard commercial formulation of toltrazuril, Cevazuril® (dose=20 mg toltrazuril per kg body weight equivalent to 0.4 mL/Kg body weight) on SD0. • Group 4: 8 piglets, left untreated.
(§5) All four (4) groups of piglets were injected on SD0 with iron injection (Gleptosil®) at the dose rate of 1 ml per piglet. 3 days after treatment (on SD3), the piglets were orally challenged with a characterized strain of Isospora suis.
(§6) The following study parameters were used to assess the efficacy of the test products: • Local and general tolerance (for Groups 1 and 2); • Occurrence of diarrhea and fecal consistency; • Oocyst excretion; • Body weight development; and • Serum concentrations of toltrazuril and its metabolite toltrazuril sulfone (e.g., ponazuril) in Groups 1, 2 and 3. Results

For another series, the system named is Isospora suis. The experiment in a line: Anti-coccidial efficacy in piglets orally challenged with Isospora suis (Example B). The settings on record: single i.m. 20 or 40 mg/kg (G1, G2). As for the experimental part:
as §4, §5, §6

Series [3] in a line: Local and general tolerance of a single intramuscular injection in 3-day-old piglets (Example A). On the procedure:
as §1, §2, §3

A short description of series [4]: Local and general tolerance in 2-day-old piglets (Example B). The note with it: all tested doses (i.m. 20 and 40 mg/kg). As for the experimental part:
as §4, §5, §6

Consider `Cc1cc(-n2c(=O)[nH]c(=O)n(C)c2=O)ccc1Oc1ccc(SC(F)(F)F)cc1` [toltrazuril], for which the “Weight gain versus control non-treated piglets” value in series [1] (intramuscularly treated piglets, at SD0+29 days) was “+2 kg”. Moreover, the Body weight development entry in series [1] (treated piglets) is listed as “normal”. Also, in series [2], the Absorption entry was “well absorbed”. For the same compound, in the series with Isospora suis (Isospora suis challenge on SD3), the Fecal consistency result is given as “unchanged” and the Oocyst excretion entry was “No oocyst excretion”. In addition, the “Weight gain versus control animals (G4)” value with Isospora suis (infected animals) is “gained more weight than the control animals”. For the same compound, the “Time to disappearance of local reaction (edema) post injection” value in series [3] (intramuscular 1.2 mL/Kg body weight) is recorded as “less than 1 week”. For the same compound, the Local reaction entry in series [3] (intramuscular 1.2 mL/Kg body weight (60 mg/kg)) is listed as “limited local reaction (edema) in some piglets”. In addition, in series [3] (single intramuscular doses up to 60 mg/kg, 3-day-old piglets), the General tolerance result is listed as “well tolerated”. In addition, the Pain at injection entry in series [3] (single intramuscular injection, 3-day-old piglets) is “No pain”. For the same compound, the Tolerance entry in series [4] is “well tolerated”.

(Values after patent US9877969B2, “Treatments with triazines” (CEVA SANTE ANIMALE, priority 2012, dated 2018).)
